Measured values reported in PubChem BioAssay (NCI).
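Test compounds were applied to cells in 96-well plates for 48 hours at 5 doses. GI50 is the concentration that inhibits growth by half. TGI denotes the concentration required for complete inhibition of growth.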

Columns and labels:
Experiment in all cases: inhibition of tumour cell growth, NCI panel, 48 h
NCI-H23 lung = tested on: NCI-H23 lung
COLO 205 colon = tested on: COLO 205 colon
SN12C renal = tested on: SN12C renal
OVCAR-4 ovarian = tested on: OVCAR-4 ovarian
HCT-116 colon = tested on: HCT-116 colon
EKVX NSCLC = tested on: EKVX NSCLC
DU-145 prostate = tested on: DU-145 prostate
786-0 renal = tested on: 786-0 renal
CAKI-1 renal = tested on: CAKI-1 renal
NCI/ADR-RES ovarian = tested on: NCI/ADR-RES ovarian

SMILES | GI50 (NCI-H23 lung) [µM] | TGI (NCI-H23 lung) [µM] | GI50 (COLO 205 colon) [µM] | TGI (COLO 205 colon) [µM] | GI50 (SN12C renal) [µM] | GI50 (OVCAR-4 ovarian) [µM] | TGI (OVCAR-4 ovarian) [µM] | GI50 (HCT-116 colon) [µM] | TGI (HCT-116 colon) [µM] | GI50 (EKVX NSCLC) [µM] | TGI (EKVX NSCLC) [µM] | GI50 (DU-145 prostate) [µM] | TGI (DU-145 prostate) [µM] | GI50 (786-0 renal) [µM] | TGI (786-0 renal) [µM] | GI50 (CAKI-1 renal) [µM] | TGI (CAKI-1 renal) [µM] | GI50 (NCI/ADR-RES ovarian) [µM] | TGI (NCI/ADR-RES ovarian) [µM] | TGI (SN12C renal) [µM]
[N-]=[N+]=NCCCn1c2c(c3ccc([N+](=O)[O-])cc3c1=O)C(=O)c1cc(F)ccc1-2 | 2.69 | 19 | 9.26 | > 100 | 0.703 | 16.2 | > 95.7 | 0.388 | 3.3 | 61.2 | > 100 | 0.547 | > 63.5 | 0.334 | 2.01 | 0.288 | 4.68 | 1.46 | > 49 | –
COc1cc(-c2csc(NC(=O)Nc3ccc(C(F)(F)F)cc3)n2)cc(OC)c1OC | 2.48 | 8.81 | 2.1 | 4.5 | 2.62 | 2.02 | 9.07 | 2.32 | 8.16 | 2.15 | 10.2 | 3.22 | 12.8 | 1.62 | 3.54 | 2.41 | 8.62 | 2.12 | 6.94 | 8.89
Cc1cn2c(/C=N/N=C(N)N)c(-c3ccccn3)nc2s1 | 6.65 | 16.7 | 11.3 | 42 | 14.7 | 15.2 | 40.1 | 6.29 | 25.8 | 8.37 | 25.8 | 10.5 | 37.7 | 6.56 | 17.9 | 20.8 | 41.7 | > 27.1 | > 67.8 | 29.5
Cc1ccc(C(=O)/C(=C\c2ccc([N+](=O)[O-])cc2)S(=O)Cc2ccc(Cl)cc2)cc1 (centres undefined) | 1.83 | 3.89 | 1.88 | 3.81 | 1.76 | 1.85 | 3.85 | 1.43 | 2.92 | 1.88 | 4.02 | 1.75 | 3.21 | 1.57 | 2.97 | 1.81 | 4.04 | 2.72 | 7.97 | 3.64
Cc1cc(-c2ccccn2)cc(C)c1/C=C/c1cncc(-c2nn[nH]n2)c1 | > 25 | > 25 | > 25 | > 25 | > 25 | > 25 | > 25 | > 25 | > 25 | > 25 | > 25 | > 25 | > 25 | > 25 | > 25 | > 25 | > 25 | > 25 | > 25 | > 25
O=C1/C(=C/c2ccc(Cl)cc2)CCC/C1=C\c1ccc(Cl)cc1 | 3.06 | > 100 | 4.17 | > 100 | 6.06 | 5.17 | > 100 | 1.65 | 3.02 | > 100 | > 100 | 4.09 | > 100 | 5.55 | > 100 | > 100 | > 100 | 4.32 | > 100 | > 100
